# Data reported in patent US10450298B2, “PET Imaging agents” (Novartis AG, priority 2015, dated 2019).
# Molecular target: Recombinant human ATX (Homo sapiens (Human), UniProt Q13822)
# Assay: Assessing ATX inhibition (choline release, Amplex Red fluorescence)
# Type: biochemical
# Details: ATX 10 nM, LPC 18:1 10 μM, pre-incubated at 37° C. for 20 minutes; mean of n≥2
# Method: Reagents—LPC (oleoyl (18:1)) was purchased from Avanti Polar Lipids (Alabaster, Ala.) and solubilized in methanol to 20 mM. Amplex Red was obtained from Invitrogen Life Technologies (Paisley, UK) and dissolved in DMSO to 10 mM. Choline oxidase and horseradish peroxidase (HRP) were obtained from Sigma Aldrich (Dorset, UK) and dissolved in HBSS to 20 U/ml and 200 U/ml respectively. All reagents were stored at −20° C. in single use aliquots. All experimental measurements were performed in assay buffer made up immediately prior to use (HBSS, 0.01% BSA essentially fatty acid free).
# Protein—Recombinant human ATX was prepared at Novartis (Basel, CH) in a human embryonic kidney (HEK) cell preparation, and stored in single use aliquots of […] (26 μM) stocks stored at −80° C.
# Method—All experimental measurements should be performed in black 384 well polystyrene (low volume, round bottom, Corning (3676)) plates. PerkinElmer EnVision (Fluorescence Intensity/Absorbance Monochromator) or Tecan Infinite 200 PRO series plate reader was used to detect change in fluorescent intensity.
# Assessing ATX inhibition—ATX activity was determined by measurement of released choline in reactions containing ATX (10 nM), choline oxidase (0.1 U/ml), HRP (100 U/ml), amplex red (50 μM) and LPC 18:1 (10 μM). Compounds of the invention should be prepared as 10 point serial dilutions from 1 μM in duplicate and pre-incubated with ATX at 37° C. for 20 minutes prior to the addition of remaining reagents. The liberated choline was measured from changes in fluorescence intensity (λex 530 nm, λm 590 nm) of the product resurofin at 37° C. every 2 minutes over a 40-minute period. ATX activity was measured as a slope of the linear portion of the progress curve, typically between 14 to 24 minutes.
# Data analysis—Slope data was exported to Graphpad prism (Graphpad software, San Diego, Calif.) where data was fitted to equation 1. Y=Bottom+(Top−Bottom)/(1+10^((Log IC50−X)*HillSlope)) Equation 1
# IC50 values were determined from the concentration of compound that reduced the total activity by 50% and represent the mean of n≥2.
row,Compound,IC50 [nM]
1,COc1cc(CN2CCN(C(=O)/C=C/c3ccc(Cl)cc3Cn3nnc(C)n3)CC2)ccn1,13
2,Cc1nnn(Cc2cc(C(F)(F)F)ccc2/C=C/C(=O)N2CCN(Cc3ccc(OCCF)cn3)C[C@H]2C)n1,3
3,Cc1nnn(Cc2cc(C(F)(F)F)ccc2/C=C/C(=O)N2CCN(Cc3ccc(OCCOCCF)cn3)C[C@H]2C)n1,6
4,Cc1nnn(Cc2cc(Cl)ccc2/C=C/C(=O)N2CCN(Cc3ccc(OCCF)cn3)C[C@H]2C)n1,4

# Further compounds by falling IC50, results first:
row,IC50 [nM],Compound
1,5,Cc1nnn(Cc2cc(Cl)ccc2/C=C/C(=O)N2CCN(Cc3ccc(OCCOCCF)cn3)C[C@H]2C)n1
2,2,Cc1nnn(Cc2cc(C(F)(F)F)ccc2CCC(=O)N2CCN(Cc3ccc(OCCF)cn3)C[C@H]2C)n1
3,1.4,Cc1nnn(Cc2cc(C(F)(F)F)ccc2/C=C/C(=O)N2CCN(Cc3coc(CF)n3)C[C@H]2C)n1
